# Assay results as given in BindingDB's records for doi:10.1021/acs.jmedchem.9b01152 (Universidad De Navarra, 2020).
# Target: Histone deacetylase 8 (Homo sapiens) (UniProt Q9BY41)
# Assay: Inhibition of human recombinant HDAC8 using RHKAcKAc-AMC substrate by fluorescence based assay
# Sequence of Histone deacetylase 8 (Homo sapiens) (Q9BY41 whole entry, looked up): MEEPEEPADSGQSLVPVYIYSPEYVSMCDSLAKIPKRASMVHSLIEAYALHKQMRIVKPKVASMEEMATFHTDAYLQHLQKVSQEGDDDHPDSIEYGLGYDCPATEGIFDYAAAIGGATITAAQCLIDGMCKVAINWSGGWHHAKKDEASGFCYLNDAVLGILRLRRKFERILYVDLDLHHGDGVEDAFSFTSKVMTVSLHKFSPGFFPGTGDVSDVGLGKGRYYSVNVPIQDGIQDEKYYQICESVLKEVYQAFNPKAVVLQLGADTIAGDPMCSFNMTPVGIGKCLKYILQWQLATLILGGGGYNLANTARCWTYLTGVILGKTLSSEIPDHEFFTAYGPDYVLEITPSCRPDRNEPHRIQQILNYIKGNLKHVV
smiles,measurement,value
O=c1c2ccccc2[se]n1-c1ccccc1 [2-Phenyl-benzo[d]isoselenazol-3-one],IC50,1200 nM
